# Laboratory results published in article PMC5730616, “Inhibition of human kynurenine aminotransferase isozymes by estrogen and its derivatives” (Scientific Reports, 2017).
# Several values for one entry are separate records, joined by “and”; a condition that tells them apart may be missing. Equal entries are not always repeated. Structures can show the parent of a compound that is named as a salt. Where two headings read alike, the source gives them in different places.
# Assays:
# KAT-II [1] = target: T1, KAT-II (Homo sapiens, UniProt Q8N5Z0); design: method as in PMID 27367665; conditions: previously measured; cited from earlier work
# T1 construct: made in house
# KAT-II [2] = target: T1, KAT-II; design: method as in PMID 27367665; conditions: SPR, chi^2 0.34; cited from earlier work
# human KAT-I = target: T2, human KAT-I (Homo sapiens, UniProt Q16773); test: HPLC inhibition assay on recombinant human KAT-I (KYNA production); format: biochemical
# T2 sequence (Q16773 1-422): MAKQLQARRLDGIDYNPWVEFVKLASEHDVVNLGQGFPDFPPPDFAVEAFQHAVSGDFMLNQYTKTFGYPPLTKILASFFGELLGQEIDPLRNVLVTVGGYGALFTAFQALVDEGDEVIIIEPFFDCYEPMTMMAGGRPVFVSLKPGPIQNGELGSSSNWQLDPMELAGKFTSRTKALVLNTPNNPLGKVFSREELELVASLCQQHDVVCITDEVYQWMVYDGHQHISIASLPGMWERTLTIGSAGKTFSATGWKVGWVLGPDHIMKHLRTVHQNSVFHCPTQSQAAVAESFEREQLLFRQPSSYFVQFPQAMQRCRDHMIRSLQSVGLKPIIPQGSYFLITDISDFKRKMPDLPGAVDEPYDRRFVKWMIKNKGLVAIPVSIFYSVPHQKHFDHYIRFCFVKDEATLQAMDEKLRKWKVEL
# Protocol: The KAT inhibition assay was based on that described previously[35]. 0.7 µg of KAT-I or KAT-II was incubated at 37 °C for 10 minutes in a 50 µL reaction mixture containing PLP (50 µM), α-ketoglutarate (5 mM), L-KYN (5 mM) in PBS, pH 7.4, and the inhibitor studied (1–2000 µM). Following incubation, the reaction was terminated by adding formic acid (0.8 M) in a 1:1 ratio. 50 µL of the mixture was transferred into a vial with 950 µL of water for HPLC analysis.
# KAT-II [3] = target: T1, KAT-II; test: HPLC inhibition assay on recombinant human KAT-II (KYNA production); format: biochemical
# Protocol: GraphPad Prism v7.02 software[59] was used to develop a nonlinear regression fit of the data collected in the inhibition assays. The IC50 is reported with the standard error.
# The expression and purification of recombinant KAT-I and KAT-II protein was completed as previously described[60],[61].
# The KAT inhibition assay was based on that described previously. […] Following incubation, the reaction was terminated by adding formic acid (0.8 M) in a 1:1 ratio. 50 µL of the mixture was transferred into a vial with 950 µL of water for HPLC analysis.
# The production of KYNA was measured using HPLC with UV detection at a wavelength of 330 nm, using a C18 reverse-phase column, and 50% (v/v) water and 50% (v/v) methanol mobile phase. The data was collected in triplicate.
# KAT-II [4] = target: T1, KAT-II; test: Surface plasmon resonance binding assay, steady state affinity model; conditions: KAT-II on CM5 chip, 25 °C, chi^2 0.481
# Protocol: SPR was employed to evaluate the binding profile of estradiol disulfate on KAT-II. KAT-II was bound to a CM5 chip by amine coupling (achieving approximately 8000 RU). […] Due to the nature of this interaction, kinetic analyses could not be performed to directly evaluate the association and dissociation rate constants.
# SPR binding affinity measurements were performed using the Biacore T200 with a CM5 sensor chip (GE Healthcare Life Sciences, Sydney, Australia). The experiment was prepared and obtained with the Biacore T200 Control Software, and analysed with the Biacore T200 Evaluation Software.
# Prior to performing the SPR experiments, the solutions were filter sterilised for 10 min at 25 °C. KAT-II was diluted to a concentration of 350 µg/mL using sodium acetate (pH 4.5). The Biacore T200 compartment temperature was controlled at 25 °C and the flow rate was set to 10 µL/min. Using a 1:1 mixture of EDC (400 mM) and sulfo-NHS (100 mM), two flow cells on a CM5 sensor chip (containing a carboxymethylated dextran surface) were activated. Flow cell one contained a blank immobilisation (PBST buffer injection) and flow cell two had the prepared KAT-II sample injected. The two flow cells were deactivated using an injection of 1 M ethanolamine.
# The analyte, estradiol disulfate, was prepared in running buffer (PBST with 5% DMSO) in a concentration series from 170 nM-43750 nM. […]
# [5] = recombinant human KAT-I, inhibitor 1–2000 µM, read-out: IC50 on KAT-I
# [6] = recombinant human KAT-II, inhibitor 1–2000 µM, read-out: IC50 on KAT-II
# T1 sequence (Q8N5Z0 30-425): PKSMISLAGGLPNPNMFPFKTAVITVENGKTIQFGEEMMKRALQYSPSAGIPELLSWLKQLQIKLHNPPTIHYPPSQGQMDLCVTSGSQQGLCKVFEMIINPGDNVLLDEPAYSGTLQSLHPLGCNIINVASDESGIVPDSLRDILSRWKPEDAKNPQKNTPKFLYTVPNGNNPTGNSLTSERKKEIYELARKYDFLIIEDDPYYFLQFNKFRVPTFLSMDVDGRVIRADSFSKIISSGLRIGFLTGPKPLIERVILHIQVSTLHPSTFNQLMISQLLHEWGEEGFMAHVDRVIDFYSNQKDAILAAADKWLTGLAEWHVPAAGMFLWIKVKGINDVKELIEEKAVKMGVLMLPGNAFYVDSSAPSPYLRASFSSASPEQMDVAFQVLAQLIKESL
smiles,measurement,setting,value
CC1COc2c(N3CCN(N)CC3)c(F)cc3c(=O)c(C(=O)O)cn1c23 (stereo not drawn) [BFF-122],IC50,KAT-II [1],15 to 20 µM
O=C(O)C(Cc1ccccc1)N1C(=O)c2cc(Cl)c(Cl)cc2C1=O (stereo not drawn) [NS-1502],IC50,KAT-II [1],315 µM
same,Kd,KAT-II [2],7.2 µM
"NC1Cc2ccccc2N(O)C1=O (stereo not drawn) [PF-04859989, reference compound]",IC50,KAT-II [1],1 to 3 µM
"C[C@]12CCC3c4ccc(OS(=O)(=O)O)cc4CCC3C1CC[C@@H]2O (stereo partly drawn) [estradiol 3-sulfate, estradiol 3-sulfate sodium salt]",IC50,human KAT-I; [5],> 2000 µM
same,IC50,KAT-II [3]; [6],> 2000 µM
"C[C@]12CC[C@@H]3c4ccc(OS(=O)(=O)O)cc4CC[C@H]3[C@@H]1CC[C@@H]2OS(=O)(=O)O [estradiol disulfate, estradiol 3,17-disulfate dipotassium salt]",IC50,"human KAT-I; recombinant human KAT-I, PLP 50 µM, L-KYN 5 mM, 37 °C 10 min, ± standard error, read-out: IC50 on KAT-I",292 µM
same,Increase of inhibition compared to estradiol,"KAT-II [3]; KAT-I and KAT-II inhibition assays, attributed to the 17-sulfate moiety",10–100 fold
same,IC50,"KAT-II [3]; recombinant human KAT-II, PLP 50 µM, L-KYN 5 mM, 37 °C 10 min, ± standard error, read-out: IC50 on KAT-II",26.3 µM
same,Reversibility of KAT-II inhibition,KAT-II [3]; shown by varying PLP concentration in the reaction mixture,reversible
same,Kd,KAT-II [4],5.05 µM
"C[C@]12CC[C@@H]3c4ccc(O)cc4CC[C@H]3[C@@H]1CC[C@@H]2O [estradiol, reference compound]",IC50,human KAT-I,> 2000 µM
same,IC50,KAT-II [3],> 2000 µM
"C[C@]12CCC3c4ccc(OS(=O)(=O)O)cc4CCC3C1CCC2=O (stereo partly drawn) [estrone sulfate, estrone sulfate potassium salt]",IC50,human KAT-I; [5],> 2000 µM
same,IC50,KAT-II [3]; [6],> 2000 µM and ~2000 µM
